Converted amounts (≈) assume the structure as drawn. Like-named read-outs stand apart in the source and are kept apart here.
How the values were obtained:
Format in all cases: cell-based
[1] = test system: P. aeruginosa ATCC 27853; experiment: MIC against P. aeruginosa ATCC 27853; settings: Pseudomonas aeruginosa, ATCC27853
[2] = test system: S. aureus MP-549 msr(a) USA 300; experiment: MIC against S. aureus MP-549 msr(a) USA 300; settings: Staphylococcus aureus, USA300, S. aureus MP-549 msr(a) USA 300
[3] = test system: S. aureus BAA 977 iErmA; experiment: MIC against S. aureus BAA 977 iErmA; settings: Staphylococcus aureus, BAA977
[4] = test system: K. pneumoniae ATCC 10031; experiment: MIC against K. pneumoniae ATCC 10031; settings: Klebsiella pneumoniae, ATCC10031
[5] = test system: E. coli ATCC 25922; experiment: MIC against E. coli ATCC 25922; settings: Escherichia coli, ATCC25922
[6] = test system: S. aureus MP-513 clinical cErm; experiment: MIC against S. aureus MP-513 clinical cErm; settings: Staphylococcus aureus
[7] = test system: E. coli MP-9 ΔTolC; experiment: MIC against E. coli MP-9 ΔTolC; settings: Escherichia coli
[8] = test system: S. pneumoniae ATCC 49619; experiment: MIC against S. pneumoniae ATCC 49619; settings: Streptococcus pneumoniae, ATCC49619
[9] = test system: S. pneumoniae MMX 3031 cMefA; experiment: MIC against S. pneumoniae MMX 3031 cMefA; settings: Streptococcus pneumoniae, MMX3031CMEFA
[10] = test system: S. pneumoniae MMX 3028 cErmB; experiment: MIC against S. pneumoniae MMX 3028 cErmB; settings: Streptococcus pneumoniae, MMX3028CERMB; S. pneumoniae MMX 3028 cErmB; read-out: MIC
[11] = test system: S. aureus MMX 3035 cErmA; experiment: MIC against S. aureus MMX 3035 cErmA; settings: Staphylococcus aureus, MMX3035CERMA; S. aureus MMX 3035 cErmA; read-out: MIC
[12] = test system: E. faecalis ATCC 29212; experiment: MIC against E. faecalis ATCC 29212; settings: Enterococcus faecalis
[13] = test system: E. faecalis MMX 847 Macrolide-Resistant; experiment: MIC against E. faecalis MMX 847 Macrolide-Resistant; settings: Enterococcus faecalis, read-out: MIC
[14] = test system: S. pyogenes ATCC 19615; experiment: MIC against S. pyogenes ATCC 19615; settings: Streptococcus pyogenes, ATCC19615; S. pyogenes ATCC 19615; read-out: MIC
[15] = test system: E. coli ATCC 15922; experiment: MIC against E. coli ATCC 15922; settings: Escherichia coli, ATCC15922; E. coli ATCC 15922; read-out: MIC
[16] = test system: S. aureus ATCC 29213; experiment: MIC against S. aureus ATCC 29213; settings: Staphylococcus aureus
[17] = test system: C. difficile BAA 1805; experiment: MIC against C. difficile BAA 1805; settings: Clostridioides difficile, BAA1805
[18] = test system: E. coli MP-74 LptD mutant; experiment: MIC against E. coli MP-74 LptD mutant; settings: Escherichia coli
[19] = test system: H. influenzae ATCC 49247; experiment: MIC against H. influenzae ATCC 49247; settings: Haemophilus influenzae, ATCC49247
[20] = test system: S. pyogenes MMX 946 Macrolide-Resistant; experiment: MIC against S. pyogenes MMX 946 Macrolide-Resistant; settings: Streptococcus pyogenes; S. pyogenes MMX 946 Macrolide-Resistant (MacRes); read-out: MIC
[21] = S. pneumoniae ATCC 49619, read-out: MIC
[22] = ATCC29213, S. aureus ATCC 29213, read-out: MIC
[23] = E. faecalis MMX 847 Macrolide-Resistant (MacRes)
[24] = E. coli ATCC 25922, read-out: MIC
[25] = H. influenzae ATCC 49247, read-out: MIC

| Structure (SMILES) | MIC [1] [µg/mL] | MIC [2] [µg/mL] | MIC [3] [µg/mL] | MIC [4] [µg/mL] | MIC [5] [µg/mL] | MIC [6] [µg/mL] | MIC [7] [µg/mL] | MIC ([16]; ATCC29213) [µg/mL] | also measured |
| --- | --- | --- | --- | --- | --- | --- | --- | --- | --- |
| CSC1O[C@H]([C@H](NC(=O)[C@H]2NC[C@@H]3CN(C)CCO[C@H]32)[C@H](C)Cl)C(O)[C@@H](O)[C@H]1O (stereo partly shown) [FSA-503002] | > 64 | > 64 | > 64 | > 64 | > 64 | > 64 | > 64 | – | – |
| CSC1O[C@H]([C@H](NC(=O)[C@H]2NC[C@@H]3C[C@@H](c4cc(F)cc(F)c4)CCO[C@H]32)[C@H](C)Cl)C(O)[C@@H](O)[C@H]1O (stereo partly shown) [FSA-511080] | – | – | – | – | – | – | 4 (≈ 7.26 µM) | – | MIC [8, 21]: ≤ 0.06 µg/mL; MIC [9]: ≤ 0.06 µg/mL; MIC [10]: 8 µg/mL (≈ 14.5 µM); MIC [11]: > 64 µg/mL; MIC ([12]; ATCC29212, read-out: MIC): 0.5 µg/mL (≈ 0.907 µM); MIC ([13]; E. faecalis MMX 847 MacRes): > 64 µg/mL; MIC [14]: ≤ 0.06 µg/mL; MIC [15]: > 64 µg/mL |
| CSC1O[C@H]([C@H](NC(=O)[C@H]2NC[C@@H]3CN(C(=N)N)CCO[C@H]32)[C@H](C)Cl)C(O)[C@@H](O)[C@H]1O (stereo partly shown) [FSA-504057] | > 64 | – | – | > 64 | > 64 | > 64 | > 64 | > 64 | – |
| CNC1CCO[C@@H]2[C@H](CN[C@@H]2C(=O)N[C@H]([C@H](C)Cl)[C@H]2OC(SC)[C@H](O)[C@H](O)C2O)C1 (stereo partly shown) [FSA-510065] | – | > 64 | > 64 | > 64 | > 64 | – | > 64 | > 64 | MIC [8]: > 64 µg/mL; MIC [17]: > 64 µg/mL; MIC [18]: > 64 µg/mL; MIC ([12]; ATCC29212): > 64 µg/mL; MIC [19]: > 64 µg/mL |
| CCCN1CCO[C@@H]2[C@H](CN[C@@H]2C(=O)N[C@H]([C@H](C)Cl)[C@H]2OC(SC)[C@H](O)[C@H](O)C2O)C1 (stereo partly shown) [FSA-503003] | > 64 | 2 (≈ 4.15 µM) | 4 (≈ 8.3 µM) | > 64 | > 64 | > 64 | > 64 | – | MIC [16, 22]: 4 µg/mL (≈ 8.3 µM) |
| CSC1O[C@H]([C@H](NC(=O)[C@H]2NC[C@@H]3C[C@@H](c4cccc(F)c4)CCO[C@H]32)[C@H](C)Cl)C(O)[C@@H](O)[C@H]1O (stereo partly shown) [FSA-511077] | – | 0.23 (≈ 0.431 µM) | – | – | – | – | 4 (≈ 7.5 µM) | – | MIC [8, 21]: ≤ 0.06 µg/mL; MIC [9]: ≤ 0.06 µg/mL; MIC [10]: 8 µg/mL (≈ 15 µM); MIC [11]: > 64 µg/mL; MIC ([4]; K. pneumoniae ATCC 10031, read-out: MIC): 8 µg/mL (≈ 15 µM); MIC ([12]; ATCC29212, read-out: MIC): 0.5 µg/mL (≈ 0.938 µM); MIC [14]: ≤ 0.06 µg/mL; MIC [15]: > 64 µg/mL |
| CSC1O[C@H]([C@H](NC(=O)[C@H]2NC[C@@H]3CN(CC(=O)O)CCO[C@H]32)[C@H](C)Cl)C(O)[C@@H](O)[C@H]1O (stereo partly shown) [FSA-504063] | > 64 | – | – | > 64 | > 64 | > 64 | > 64 | > 64 | – |
| CSC1O[C@H]([C@H](NC(=O)[C@H]2NC[C@@H]3CN(Cc4ccnc(N)c4)CCO[C@H]32)[C@H](C)Cl)C(O)[C@@H](O)[C@H]1O (stereo partly shown) [FSA-504049] | > 64 | 8 (≈ 14.6 µM) | – | > 64 | > 64 | > 64 | > 64 | – | MIC [16, 22]: 14 µg/mL (≈ 25.6 µM) |
| C=CCOC(=O)N1CCO[C@@H]2[C@H](CN[C@@H]2C(=O)N[C@H]([C@H](C)Cl)[C@H]2OC(SC)[C@H](O)[C@H](O)C2O)C1 (stereo partly shown) [FSA-503073] | > 64 | – | – | > 64 | > 64 | > 64 | > 64 | – | – |
| CSC1O[C@H]([C@H](NC(=O)[C@H]2NC[C@@H]3C=C(c4ccccc4F)CCO[C@@H]23)[C@H](C)Cl)C(O)[C@@H](O)[C@H]1O (stereo partly shown) [FSA-511073] | – | 1 (≈ 1.88 µM) | 1 (≈ 1.88 µM) | – | – | – | – | – | MIC [9]: 12 µg/mL (≈ 22.6 µM); MIC [20]: > 64 µg/mL; MIC [11]: > 64 µg/mL; MIC [16, 22]: 1 µg/mL (≈ 1.88 µM); MIC ([12]; ATCC29212, read-out: MIC): 4 µg/mL (≈ 7.53 µM); MIC [13, 23]: > 64 µg/mL; MIC [5, 24]: > 64 µg/mL; MIC [19, 25]: > 64 µg/mL |
| CCNC(=O)N1CCO[C@@H]2[C@H](CN[C@@H]2C(=O)N[C@H]([C@H](C)Cl)[C@H]2OC(SC)[C@H](O)[C@H](O)C2O)C1 (stereo partly shown) [FSA-503004] | > 64 | > 64 | > 64 | > 64 | > 64 | > 64 | > 64 | > 64 | – |
| CSC1O[C@H]([C@H](NC(=O)[C@H]2NC[C@@H]3CC(N)CCO[C@H]32)[C@H](C)Cl)C(O)[C@@H](O)[C@H]1O (stereo partly shown) [FSA-510012] | – | > 64 | > 64 | > 64 | > 64 | – | > 64 | > 64 | MIC [8]: > 64 µg/mL; MIC [17]: > 64 µg/mL; MIC [18]: > 64 µg/mL; MIC ([12]; ATCC29212): > 64 µg/mL; MIC [19]: > 64 µg/mL |
| CSC1O[C@H]([C@H](NC(=O)[C@H]2NC[C@@H]3CNCCO[C@H]32)[C@H](C)Cl)C(O)[C@@H](O)[C@H]1O (stereo partly shown) [FSA-503001] | > 64 | > 64 | > 64 | > 64 | > 64 | > 64 | > 64 | – | – |
| CSC1O[C@H]([C@H](NC(=O)[C@H]2NC[C@@H]3C=C(c4cccc(F)c4)CCO[C@@H]23)[C@H](C)Cl)C(O)[C@@H](O)[C@H]1O (stereo partly shown) [FSA-511071] | – | 1 (≈ 1.88 µM) | 2 (≈ 3.77 µM) | – | – | – | – | – | MIC [9]: 0.5 µg/mL (≈ 0.942 µM); MIC [20]: > 64 µg/mL; MIC [11]: > 64 µg/mL; MIC [16, 22]: 2 µg/mL (≈ 3.77 µM); MIC ([12]; ATCC29212, read-out: MIC): 4 µg/mL (≈ 7.53 µM); MIC [13, 23]: > 64 µg/mL; MIC [14]: 0.5 µg/mL (≈ 0.942 µM); MIC [5, 24]: > 64 µg/mL; MIC [19, 25]: > 64 µg/mL |
| CSC1O[C@H]([C@H](NC(=O)[C@H]2NC[C@@H]3CN(Cc4ccc(N)nc4)CCO[C@H]32)[C@H](C)Cl)C(O)[C@@H](O)[C@H]1O (stereo partly shown) [FSA-504050] | > 64 | – | – | > 64 | > 64 | > 64 | > 64 | – | – |

Reference: patent US20220073554A1, “LINCOSAMIDE ANTIBIOTICS AND USES THEREOF” (President and Fellows of Harvard College, priority 2017, published 2022)
